Columns and labels:
[1] = biological target: T1, mGLP-1R (Mus musculus, UniProt O35659); assay: GLP-1R agonist activity, cAMP in transfected HEK293 cells; format: cell-based; settings: HEK293 cells transfected with GLP-1R, cAMP, 20 min incubation; read-out: mGLP-1R EC50
T1 construct: expressed in transfected cells; host or cells: HEK293
T1 sequence (O35659 22-463): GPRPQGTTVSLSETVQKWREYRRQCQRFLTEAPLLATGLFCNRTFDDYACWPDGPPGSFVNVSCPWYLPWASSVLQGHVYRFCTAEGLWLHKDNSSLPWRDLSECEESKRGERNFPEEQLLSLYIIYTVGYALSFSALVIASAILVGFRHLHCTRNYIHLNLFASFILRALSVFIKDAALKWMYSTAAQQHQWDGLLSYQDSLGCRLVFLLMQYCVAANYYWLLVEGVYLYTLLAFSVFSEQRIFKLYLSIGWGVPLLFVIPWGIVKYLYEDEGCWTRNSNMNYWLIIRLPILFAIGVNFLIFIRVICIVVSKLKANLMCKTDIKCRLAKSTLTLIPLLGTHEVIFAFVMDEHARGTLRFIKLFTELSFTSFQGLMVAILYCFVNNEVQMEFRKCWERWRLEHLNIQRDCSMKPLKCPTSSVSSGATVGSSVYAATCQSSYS
Experimental: HEK293 cells were co-transfected with cDNA encoding GLP-1R or GIPR. In a test for determining the compound, the cells were inoculated in a 96-well plate 2 h in advance, the polypeptide compound was dissolved with DMSO, and diluted to different multiples with a culture medium containing 0.1% bovine serum albumin and added to the co-transfected cells. After the cells were incubated for 20 min, fluorescence values were determined through microplate reader of an ELISA kit of the Cisbo Company, a standard curve was established to convert the fluorescence values into corresponding cAMP values, and the EC50 value of the compound was calculated through nonlinear regression of Graphpad Prism 5.0 software.

[2] = biological target: T2, mGIPR (Mus musculus, UniProt Q0P543); assay: GIPR agonist activity, cAMP in transfected HEK293 cells; format: cell-based; settings: HEK293 cells transfected with GIPR, cAMP, 20 min incubation; read-out: mGIPR EC50
T2 construct: expressed in transfected cells; host or cells: HEK293
T2 sequence (Q0P543 19-460): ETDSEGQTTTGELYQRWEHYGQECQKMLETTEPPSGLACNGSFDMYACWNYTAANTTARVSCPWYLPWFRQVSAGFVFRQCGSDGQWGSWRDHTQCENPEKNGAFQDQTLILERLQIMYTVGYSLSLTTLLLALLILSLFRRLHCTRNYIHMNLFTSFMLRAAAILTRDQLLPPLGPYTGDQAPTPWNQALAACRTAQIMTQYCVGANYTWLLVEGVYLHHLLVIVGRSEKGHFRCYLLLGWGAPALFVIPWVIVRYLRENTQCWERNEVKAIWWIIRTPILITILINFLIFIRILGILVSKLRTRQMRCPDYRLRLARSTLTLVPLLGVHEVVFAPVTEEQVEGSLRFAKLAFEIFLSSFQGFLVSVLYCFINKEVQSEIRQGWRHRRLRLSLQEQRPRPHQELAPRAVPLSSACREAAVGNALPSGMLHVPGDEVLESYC
Experimental: HEK293 cells were co-transfected with cDNA encoding GLP-1R or GIPR. In a test for determining the compound, the cells were inoculated in a 96-well plate 2 h in advance, the polypeptide compound was dissolved with DMSO, and diluted to different multiples with a culture medium containing 0.1% bovine serum albumin and added to the co-transfected cells.

Molecule `CCCCCCCCCCCCCCCC(=O)N[C@@H](CCC(=O)NCCCC[C@H](NC(=O)[C@H](CCC(N)=O)NC(=O)[C@H](C)NC(=O)[C@@H](NC(=O)[C@H](CCCCN)NC(=O)[C@H](CC(=O)O)NC(=O)[C@H](CC(C)C)NC(=O)C1(NC(=O)[C@@H](NC(=O)[C@H](CO)NC(=O)[C@H](Cc2ccc(O)cc2)NC(=O)[C@H](CC(=O)O)NC(=O)[C@H](CO)NC(=O)[C@@H](NC(=O)[C@H](Cc2ccccc2)NC(=O)[C@@H](NC(=O)CNC(=O)[C@H](CCC(=O)O)NC(=O)C2(NC(=O)[C@@H](N)Cc3ccc(O)cc3)CCCC2)[C@@H](C)O)[C@@H](C)O)[C@@H](C)CC)CCCC1)[C@@H](C)CC)C(=O)N[C@@H](C)C(=O)N[C@@H](Cc1ccccc1)C(=O)N[C@H](C(=O)N[C@@H](CCC(N)=O)C(=O)N[C@@H](Cc1c[nH]c2ccccc12)C(=O)N[C@@H](CC(C)C)C(=O)N[C@H](C(=O)N[C@@H](C)C(=O)NCC(=O)NCC(=O)N1CCC[C@H]1C(=O)N[C@@H](CO)C(=O)N[C@@H](CO)C(=O)NCC(=O)N[C@@H](C)C(=O)N1CCC[C@H]1C(=O)N1CCC[C@H]1C(=O)N1CCC[C@H]1C(=O)N[C@@H](CO)C(N)=O)[C@@H](C)CC)C(C)C)C(=O)O` [ID NO: 14] has an EC50 [1] of 0.0311 nM and an EC50 [2] of 0.0517 nM.

From patent US20220251163A1 (Sinopep-Allsino Biopharmaceutical Co., Ltd., priority 2019, published 2022)
